How the values were obtained:
Experiment in all cases: KinomeScan kinase profiling
Type in all cases: binding
KIT (V559D) = biological target: T1, KIT (V559D) (Homo sapiens, UniProt P10721, V559D)
T1 construct: host or cells: T7 phage in E. coli host derived from BL21
How it was run: (§1)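 Kinases were expressed as T7 phage fusions in a BL21-derived E. coli host and the cleared lysates were used. Ligand beads were blocked with biotin and buffer (1% BSA, 0.05% Tween 20, 1 mM DTT). Compounds came from 40× DMSO stocks, and phage in the eluates was titred by qPCR.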

[1] = biological target: T2, EGFR (L747-E749del, A750P) (Homo sapiens, UniProt P00533, A750P/DEL747-749)
T2 construct: purchased Ambit Biosciences Corp (KinomeScan); host or cells: T7 phage in E. coli host derived from BL21
How it was run: as §1

PLK3 = biological target: T3, PLK3 (Homo sapiens, UniProt Q9H4B4)
T3 construct: purchased Ambit Biosciences Corp (KinomeScan); host or cells: E. coli host derived from BL21, infected with T7 phage
How it was run: as §1

ABL1 = biological target: T4, ABL1 (Homo sapiens, UniProt P00519)
T4 construct: host or cells: E. coli host derived from BL21 (T7 phage lysate)
How it was run: as §1

LKB1 = biological target: T5, LKB1 (Homo sapiens, UniProt Q15831)
T5 construct: host or cells: E. coli derived from BL21, infected with T7 phage
How it was run: as §1

EPHA8 = biological target: T6, EPHA8 (Homo sapiens, UniProt P29322)
T6 construct: host or cells: E. coli host derived from BL21, T7 phage lysate
How it was run: as §1

FES = biological target: T7, FES (Homo sapiens, UniProt P07332)
T7 construct: host or cells: E. coli host derived from BL21, infected with T7 phage
T7 sequence (P07332 whole entry): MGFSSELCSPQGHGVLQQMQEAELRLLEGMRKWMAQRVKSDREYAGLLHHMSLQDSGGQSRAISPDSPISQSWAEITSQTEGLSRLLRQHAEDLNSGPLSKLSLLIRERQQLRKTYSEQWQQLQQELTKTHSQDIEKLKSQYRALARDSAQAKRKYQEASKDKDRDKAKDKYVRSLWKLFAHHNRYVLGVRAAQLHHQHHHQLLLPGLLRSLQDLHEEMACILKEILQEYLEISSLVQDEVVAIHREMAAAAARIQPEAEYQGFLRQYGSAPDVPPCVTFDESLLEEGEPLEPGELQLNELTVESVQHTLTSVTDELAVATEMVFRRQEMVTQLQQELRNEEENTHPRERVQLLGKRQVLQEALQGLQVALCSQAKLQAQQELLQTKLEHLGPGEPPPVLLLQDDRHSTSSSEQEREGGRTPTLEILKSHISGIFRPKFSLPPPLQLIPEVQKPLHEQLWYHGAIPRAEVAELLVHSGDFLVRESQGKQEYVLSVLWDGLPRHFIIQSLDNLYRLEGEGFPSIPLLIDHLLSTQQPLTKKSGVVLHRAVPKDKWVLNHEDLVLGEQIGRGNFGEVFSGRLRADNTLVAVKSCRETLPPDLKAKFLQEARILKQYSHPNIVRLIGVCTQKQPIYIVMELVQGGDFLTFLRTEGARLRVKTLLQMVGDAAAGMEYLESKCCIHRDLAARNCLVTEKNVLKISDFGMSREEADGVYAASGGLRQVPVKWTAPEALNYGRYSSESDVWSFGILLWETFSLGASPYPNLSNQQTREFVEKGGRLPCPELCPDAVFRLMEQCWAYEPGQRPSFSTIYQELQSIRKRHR
How it was run: as §1

KIT = biological target: T8, KIT (Homo sapiens, UniProt P10721)
T8 construct: host or cells: T7 phage in E. coli host derived from BL21
T8 sequence (P10721 26-976): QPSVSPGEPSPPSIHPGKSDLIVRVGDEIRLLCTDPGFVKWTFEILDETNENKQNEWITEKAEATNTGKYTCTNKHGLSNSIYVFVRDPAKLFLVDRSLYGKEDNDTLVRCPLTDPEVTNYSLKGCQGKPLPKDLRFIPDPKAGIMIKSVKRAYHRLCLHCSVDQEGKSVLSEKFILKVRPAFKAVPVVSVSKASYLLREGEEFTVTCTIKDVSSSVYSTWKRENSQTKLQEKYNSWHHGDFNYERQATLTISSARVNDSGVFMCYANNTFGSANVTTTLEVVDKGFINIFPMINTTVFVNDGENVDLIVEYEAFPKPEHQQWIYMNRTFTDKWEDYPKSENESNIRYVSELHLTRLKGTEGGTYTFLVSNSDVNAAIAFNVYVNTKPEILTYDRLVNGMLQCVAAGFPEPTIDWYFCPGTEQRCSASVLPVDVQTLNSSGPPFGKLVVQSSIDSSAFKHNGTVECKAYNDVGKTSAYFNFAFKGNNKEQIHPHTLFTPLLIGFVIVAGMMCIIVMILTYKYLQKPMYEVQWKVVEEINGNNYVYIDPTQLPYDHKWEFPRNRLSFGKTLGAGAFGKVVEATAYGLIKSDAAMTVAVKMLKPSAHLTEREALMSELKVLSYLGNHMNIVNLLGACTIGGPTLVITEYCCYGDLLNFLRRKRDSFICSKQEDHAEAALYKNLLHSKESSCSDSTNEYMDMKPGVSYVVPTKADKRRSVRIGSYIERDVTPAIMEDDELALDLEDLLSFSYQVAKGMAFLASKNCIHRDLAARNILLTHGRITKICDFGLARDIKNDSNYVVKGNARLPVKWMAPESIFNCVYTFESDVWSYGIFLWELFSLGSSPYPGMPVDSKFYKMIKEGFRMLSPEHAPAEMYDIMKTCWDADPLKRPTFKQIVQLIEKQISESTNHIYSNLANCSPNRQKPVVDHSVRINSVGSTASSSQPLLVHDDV
How it was run: as §1

RIOK2 = biological target: T9, RIOK2 (Homo sapiens, UniProt Q9BVS4)
T9 construct: host or cells: E. coli host derived from BL21, T7 phage lysate
How it was run: as §1

ABL1 (Y253F) = biological target: T10, ABL1 (Y253F) (Homo sapiens, UniProt P00519, Y253F)
T10 construct: host or cells: E. coli host derived from BL21 (T7 phage lysate)
How it was run: as §1

ABL1 (M351T) = biological target: T11, ABL1 (M351T) (Homo sapiens, UniProt P00519, M351T)
T11 construct: host or cells: E. coli host derived from BL21 (T7 phage lysate)
How it was run: as §1

p38-alpha = biological target: T12, p38-alpha (Homo sapiens, UniProt Q16539)
T12 construct: host or cells: E. coli host derived from the BL21 strain, infected with T7 phage
T12 sequence (Q16539 whole entry): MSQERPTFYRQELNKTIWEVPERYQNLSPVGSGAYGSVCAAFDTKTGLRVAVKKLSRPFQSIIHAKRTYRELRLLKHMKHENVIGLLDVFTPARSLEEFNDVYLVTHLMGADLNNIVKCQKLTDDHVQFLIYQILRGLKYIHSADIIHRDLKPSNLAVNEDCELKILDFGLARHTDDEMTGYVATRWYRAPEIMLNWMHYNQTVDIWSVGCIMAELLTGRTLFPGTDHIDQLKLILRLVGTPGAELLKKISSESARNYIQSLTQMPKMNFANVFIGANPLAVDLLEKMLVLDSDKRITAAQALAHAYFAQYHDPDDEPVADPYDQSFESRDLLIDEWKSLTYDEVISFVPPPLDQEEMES
How it was run: as §1

TAK1 = biological target: T13, TAK1 (Homo sapiens, UniProt O43318)
T13 construct: host or cells: E. coli host derived from the BL21 strain, T7 phage lysate
How it was run: as §1

NLK = biological target: T14, NLK (Homo sapiens, UniProt Q9UBE8)
T14 construct: host or cells: E. coli host derived from the BL21 strain, infected with T7 phage
How it was run: as §1

PIM1 = biological target: T15, PIM1 (Homo sapiens, UniProt P11309)
T15 construct: purchased Ambit Biosciences Corp (KinomeScan); host or cells: E. coli host derived from BL21, infected with T7 phage
How it was run: as §1

BRAF (V600E) = biological target: T16, BRAF (V600E) (Homo sapiens, UniProt P15056, V600E)
T16 construct: purchased Ambit Biosciences Corp (KinomeScan); host or cells: E. coli host derived from the BL21 strain, T7 phage
T16 sequence (P15056 whole entry V600E): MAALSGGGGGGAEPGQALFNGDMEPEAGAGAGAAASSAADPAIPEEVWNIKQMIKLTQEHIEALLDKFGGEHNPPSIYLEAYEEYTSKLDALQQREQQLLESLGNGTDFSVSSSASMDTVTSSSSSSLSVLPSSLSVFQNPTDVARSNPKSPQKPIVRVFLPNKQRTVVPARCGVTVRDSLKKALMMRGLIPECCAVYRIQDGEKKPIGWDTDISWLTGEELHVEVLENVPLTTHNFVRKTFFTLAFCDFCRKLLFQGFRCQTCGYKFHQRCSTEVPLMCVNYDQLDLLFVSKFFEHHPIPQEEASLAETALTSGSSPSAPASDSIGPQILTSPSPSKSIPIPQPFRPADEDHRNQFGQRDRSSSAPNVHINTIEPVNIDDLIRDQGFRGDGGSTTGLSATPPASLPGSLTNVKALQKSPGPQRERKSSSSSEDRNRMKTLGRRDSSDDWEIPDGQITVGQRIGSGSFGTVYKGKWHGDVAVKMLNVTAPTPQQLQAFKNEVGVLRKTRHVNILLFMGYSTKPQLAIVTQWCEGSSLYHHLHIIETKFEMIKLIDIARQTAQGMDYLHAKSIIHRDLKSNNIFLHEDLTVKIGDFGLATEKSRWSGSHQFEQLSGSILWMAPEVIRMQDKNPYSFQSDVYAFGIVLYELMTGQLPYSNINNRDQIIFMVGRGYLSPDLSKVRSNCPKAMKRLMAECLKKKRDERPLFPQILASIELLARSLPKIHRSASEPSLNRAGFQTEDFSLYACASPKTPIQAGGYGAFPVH
How it was run: as §1

CDKL2 = biological target: T17, CDKL2 (Homo sapiens, UniProt Q92772)
T17 construct: host or cells: T7 phage in E. coli (BL21-derived)
How it was run: as §1

DRAK1 = biological target: T18, DRAK1 (Homo sapiens, UniProt Q9UEE5)
T18 construct: purchased Ambit Biosciences Corp (KinomeScan); host or cells: T7 phage in E. coli host derived from BL21
How it was run: as §1

HIPK1 = biological target: T19, HIPK1 (Homo sapiens, UniProt Q86Z02)
T19 construct: host or cells: E. coli host derived from BL21, infected with T7 phage
How it was run: as §1

EPHB1 = biological target: T20, EPHB1 (Homo sapiens, UniProt P54762)
T20 construct: host or cells: E. coli host derived from BL21, T7 phage lysate
T20 sequence (P54762 18-984): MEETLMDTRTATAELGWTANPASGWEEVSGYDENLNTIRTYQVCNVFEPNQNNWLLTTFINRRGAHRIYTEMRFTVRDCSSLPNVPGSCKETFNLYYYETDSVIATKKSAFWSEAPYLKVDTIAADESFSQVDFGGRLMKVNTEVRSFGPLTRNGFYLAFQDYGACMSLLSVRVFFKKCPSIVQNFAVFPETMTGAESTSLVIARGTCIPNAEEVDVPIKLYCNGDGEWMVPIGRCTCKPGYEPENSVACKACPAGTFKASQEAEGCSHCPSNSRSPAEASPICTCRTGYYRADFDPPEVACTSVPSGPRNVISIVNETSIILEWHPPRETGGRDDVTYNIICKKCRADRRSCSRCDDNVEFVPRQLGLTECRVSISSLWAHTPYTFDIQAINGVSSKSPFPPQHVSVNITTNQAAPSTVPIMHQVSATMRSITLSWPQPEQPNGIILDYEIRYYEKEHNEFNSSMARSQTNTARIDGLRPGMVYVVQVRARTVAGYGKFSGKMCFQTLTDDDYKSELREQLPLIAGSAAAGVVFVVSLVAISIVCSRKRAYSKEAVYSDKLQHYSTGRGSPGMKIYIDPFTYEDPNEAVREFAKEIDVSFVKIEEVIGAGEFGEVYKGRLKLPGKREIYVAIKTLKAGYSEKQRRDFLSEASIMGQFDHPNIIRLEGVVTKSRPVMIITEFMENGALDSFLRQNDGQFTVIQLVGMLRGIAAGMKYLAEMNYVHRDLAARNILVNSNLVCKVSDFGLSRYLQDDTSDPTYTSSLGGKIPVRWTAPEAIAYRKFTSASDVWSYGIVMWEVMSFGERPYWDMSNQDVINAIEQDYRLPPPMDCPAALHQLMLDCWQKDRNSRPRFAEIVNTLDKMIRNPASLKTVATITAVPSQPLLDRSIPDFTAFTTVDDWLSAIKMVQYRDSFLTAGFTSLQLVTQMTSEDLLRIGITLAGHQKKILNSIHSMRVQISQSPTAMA
How it was run: as §1

JNK1 = biological target: T21, JNK1 (Homo sapiens, UniProt P45983)
T21 construct: host or cells: T7 phage in E. coli host derived from BL21
T21 sequence (P45983 whole entry): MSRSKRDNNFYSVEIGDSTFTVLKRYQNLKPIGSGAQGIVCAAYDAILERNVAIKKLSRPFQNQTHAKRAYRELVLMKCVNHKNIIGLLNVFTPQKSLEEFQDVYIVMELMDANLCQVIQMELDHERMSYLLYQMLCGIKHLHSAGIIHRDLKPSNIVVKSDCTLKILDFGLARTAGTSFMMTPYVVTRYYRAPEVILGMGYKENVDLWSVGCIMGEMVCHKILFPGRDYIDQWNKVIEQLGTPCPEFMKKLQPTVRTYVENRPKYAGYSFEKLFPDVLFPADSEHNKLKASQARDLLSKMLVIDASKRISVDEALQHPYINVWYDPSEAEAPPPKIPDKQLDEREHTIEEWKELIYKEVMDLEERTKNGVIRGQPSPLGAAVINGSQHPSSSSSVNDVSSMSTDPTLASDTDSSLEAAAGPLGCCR
How it was run: as §1

MST1 = biological target: T22, MST1 (Homo sapiens, UniProt Q13043)
T22 construct: host or cells: T7 phage in E. coli host derived from BL21
T22 sequence (Q13043 whole entry): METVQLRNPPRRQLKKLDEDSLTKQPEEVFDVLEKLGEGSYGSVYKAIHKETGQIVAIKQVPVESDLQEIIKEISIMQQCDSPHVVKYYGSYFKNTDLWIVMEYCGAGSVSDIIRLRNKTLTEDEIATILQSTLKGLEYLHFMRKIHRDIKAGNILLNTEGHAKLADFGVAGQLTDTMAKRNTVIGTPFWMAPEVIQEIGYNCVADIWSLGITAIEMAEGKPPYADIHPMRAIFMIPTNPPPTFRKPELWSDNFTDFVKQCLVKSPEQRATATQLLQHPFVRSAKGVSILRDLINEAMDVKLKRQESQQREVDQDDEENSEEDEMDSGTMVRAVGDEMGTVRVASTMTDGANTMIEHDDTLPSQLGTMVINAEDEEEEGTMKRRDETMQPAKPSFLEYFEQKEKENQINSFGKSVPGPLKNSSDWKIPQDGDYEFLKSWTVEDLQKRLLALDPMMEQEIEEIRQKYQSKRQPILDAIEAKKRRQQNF
How it was run: as §1

DAPK3 = biological target: T23, DAPK3 (Homo sapiens, UniProt O43293)
T23 construct: purchased Ambit Biosciences Corp (KinomeScan); host or cells: T7 phage in E. coli host derived from BL21
How it was run: as §1

T1 sequence (P10721 26-976 V559D): as the sequence (P10721 26-976) above, with V534D counted along it

Q: How did the “% Ctrl @ 10000 nM” value (KIT (V559D)) turn out when `C#Cc1cccc(Nc2ncnc3cc(OC)c(OCCCN4CCOCC4)cc23)c1` [NRC-2694, N-(3-ethylnylphenyl)-7-methoxy-6-[3-(4-morpholinyl)propoxy]-4-quinazolinamine] was run?
A: 17 % Ctrl

Q: And the “% Ctrl @ 10000 nM” value [1]?
A: 0 % Ctrl

Q: And the “% Ctrl @ 10000 nM” value (PLK3)?
A: 97 % Ctrl

Q: And the “% Ctrl @ 10000 nM” value (ABL1)?
A: 67 % Ctrl

Q: What about the “% Ctrl @ 10000 nM” value (LKB1) of the same molecule?
A: 69 % Ctrl

Q: And the “% Ctrl @ 10000 nM” value (EPHA8)?
A: 66 % Ctrl

Q: And the “% Ctrl @ 10000 nM” value (FES)?
A: 72 % Ctrl

Q: What about the “% Ctrl @ 10000 nM” value (KIT) of the same molecule?
A: 26 % Ctrl

Q: And the “% Ctrl @ 10000 nM” value (RIOK2)?
A: 43 % Ctrl

Q: What about the “% Ctrl @ 10000 nM” value (ABL1 (Y253F)) of the same molecule?
A: 23 % Ctrl

Q: What about the “% Ctrl @ 10000 nM” value (ABL1 (M351T)) of the same molecule?
A: 37 % Ctrl

Q: What about the “% Ctrl @ 10000 nM” value (p38-alpha) of the same molecule?
A: 89 % Ctrl

Q: And the “% Ctrl @ 10000 nM” value (TAK1)?
A: 66 % Ctrl

Q: And the “% Ctrl @ 10000 nM” value (NLK)?
A: 55 % Ctrl

Q: What about the “% Ctrl @ 10000 nM” value (PIM1) of the same molecule?
A: 39 % Ctrl

Q: What about the “% Ctrl @ 10000 nM” value (BRAF (V600E)) of the same molecule?
A: 73 % Ctrl

Q: And the “% Ctrl @ 10000 nM” value (CDKL2)?
A: 67 % Ctrl

Q: And the “% Ctrl @ 10000 nM” value (DRAK1)?
A: 51 % Ctrl

Q: And the “% Ctrl @ 10000 nM” value (HIPK1)?
A: 70 % Ctrl

Q: What about the “% Ctrl @ 10000 nM” value (EPHB1) of the same molecule?
A: 72 % Ctrl

Q: What about the “% Ctrl @ 10000 nM” value (JNK1) of the same molecule?
A: 99 % Ctrl

Q: What about the “% Ctrl @ 10000 nM” value (MST1) of the same molecule?
A: 100 % Ctrl

Q: And the “% Ctrl @ 10000 nM” value (DAPK3)?
A: 34 % Ctrl

From US9050341B2, “Methods of treating drug resistant and other tumors by administering 6,7-dialkoxy quinazoline derivatives” (NATCO PHARMA LIMITED, priority 2009, dated 2015)
